Source: ChEMBL document CHEMBL1201862, “PubChem BioAssay data set” (2004)
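1) Cells in 96-well plates. 2) Compound, 48 h, 5 concentrations. 3) Linear interpolation between surrounding doses. 4) Unreached endpoint = highest concentration. Here, GI50 denotes the concentration required for 50% inhibition of growth.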 The source made the active and inactive calls. Cut-off read from the data, not from the text of the source: active = GI50 up to about 1.1 µM and inactive = higher.

How the values were obtained:
Experiment in all cases: NCI anticancer screen, dose series, 48 h
786-0 = test system: 786-0
MDA-MB-435 = test system: MDA-MB-435
HCT-15 = test system: HCT-15
SF-268 = test system: SF-268
OVCAR-3 = test system: OVCAR-3
PC-3 = test system: PC-3
OVCAR-8 = test system: OVCAR-8
COLO 205 = test system: COLO 205
RXF 393 = test system: RXF 393
DU-145 = test system: DU-145
LOX IMVI = test system: LOX IMVI
K562 = test system: K562
A549 = test system: A549
HT-29 = test system: HT-29
NCI-H23 = test system: NCI-H23
SK-MEL-28 = test system: SK-MEL-28
CAKI-1 = test system: CAKI-1
HOP-62 = test system: HOP-62
MDA-N = test system: MDA-N
A498 = test system: A498

| Structure (SMILES) | GI50 (786-0) | GI50 (MDA-MB-435) | GI50 (HCT-15) | GI50 (SF-268) | GI50 (OVCAR-3) | GI50 (PC-3) | GI50 (OVCAR-8) | GI50 (COLO 205) | GI50 (RXF 393) | GI50 (DU-145) | GI50 (LOX IMVI) | GI50 (K562) | GI50 (A549) | GI50 (HT-29) | GI50 (NCI-H23) | GI50 (SK-MEL-28) | GI50 (CAKI-1) | GI50 (HOP-62) | GI50 (MDA-N) | GI50 (A498) |
| --- | --- | --- | --- | --- | --- | --- | --- | --- | --- | --- | --- | --- | --- | --- | --- | --- | --- | --- | --- | --- |
| CN(C)Cc1cc(C(C)(C)C)cc(C2CCCCC2)c1O | 20.7 µM (inactive) | 20.3 µM (inactive) | 15.3 µM | 16.8 µM (inactive) | 14.2 µM (inactive) | 13.6 µM (inactive) | 13 µM (inactive) | 14.2 µM (inactive) | 12.6 µM (inactive) | 14.7 µM (inactive) | 15.2 µM (inactive) | 12.2 µM (inactive) | 13.6 µM (inactive) | 2.86 µM (inactive) | 24.9 µM (inactive) | 13.2 µM (inactive) | 19.9 µM (inactive) | 18 µM (inactive) |  |  |
| COC(=O)C(=O)C(C(=O)C(=O)Nc1ccc(Cl)c(Cl)c1)c1nc2ccc(C(=O)c3ccccc3)cc2nc1O (configuration not stated) | > 100 µM (inactive) | 35.4 µM (inactive) |  | 51.4 µM (inactive) | 86.7 µM (inactive) | 38.1 µM (inactive) | 40.6 µM (inactive) |  | 38.4 µM (inactive) |  | 59.3 µM (inactive) | < 0.01 µM (active) | > 100 µM (inactive) | 44.2 µM (inactive) | 47.6 µM (inactive) | 85.3 µM (inactive) | 22.5 µM (inactive) | 41.6 µM (inactive) | 42.9 µM (inactive) | > 100 µM (inactive) |
| COc1ccc(-c2cn3c(nc4ccccc43)c(/C=C/c3cccs3)n2)cc1 | 71.3 µM (inactive) | 4.28 µM (inactive) | 26.7 µM | 59.2 µM (inactive) | 21.6 µM (inactive) |  |  | 29.8 µM (inactive) | > 100 µM (inactive) | > 100 µM (inactive) | 35.3 µM (inactive) | 9.48 µM (inactive) | 55.6 µM (inactive) | 29.8 µM (inactive) | 33.8 µM (inactive) | 80 µM (inactive) |  | 83 µM (inactive) | 7.53 µM (inactive) | > 100 µM (inactive) |
| O=C1NC(=S)NC(=O)C1=Cc1ccc2ccccc2n1 | > 100 µM (inactive) |  | > 100 µM | > 100 µM (inactive) | > 100 µM (inactive) |  | > 100 µM (inactive) | > 100 µM (inactive) | > 100 µM (inactive) |  | > 100 µM (inactive) | > 100 µM (inactive) | > 100 µM (inactive) | > 100 µM (inactive) | > 100 µM (inactive) | > 100 µM (inactive) | > 100 µM (inactive) | > 100 µM (inactive) |  | > 100 µM (inactive) |
| N=c1oc2cc(O)ccc2cc1C(=O)Nc1cccc2ccccc12 | 3.45 µM (inactive) | 1.97 µM (inactive) | 2.67 µM | 3.61 µM (inactive) | 7.13 µM (inactive) | 3.05 µM (inactive) | 4.78 µM (inactive) | 15.2 µM (inactive) | 4.91 µM (inactive) | 6.53 µM (inactive) | 4.86 µM (inactive) | 3.33 µM (inactive) | 5.37 µM (inactive) | 7.6 µM (inactive) | 3.7 µM (inactive) | 6.34 µM (inactive) | 5.97 µM (inactive) | 11.3 µM (inactive) |  | 5.25 µM (inactive) |
| NC1=Nc2ccccc2Sc2nncn21 | > 100 µM (inactive) | > 100 µM (inactive) | > 100 µM | > 100 µM (inactive) | > 100 µM (inactive) | > 100 µM (inactive) | > 100 µM (inactive) | > 100 µM (inactive) | > 100 µM (inactive) | > 100 µM (inactive) | > 100 µM (inactive) | > 100 µM (inactive) | > 100 µM (inactive) | > 100 µM (inactive) | > 100 µM (inactive) | > 100 µM (inactive) | > 100 µM (inactive) | > 100 µM (inactive) |  | > 100 µM (inactive) |
| COc1ccc2c(c1)C(=O)OCCC2 | > 100 µM (inactive) | > 100 µM (inactive) | > 100 µM | > 100 µM (inactive) | > 100 µM (inactive) | > 100 µM (inactive) | > 100 µM (inactive) | > 100 µM (inactive) | > 100 µM (inactive) | > 100 µM (inactive) |  | > 100 µM (inactive) | > 100 µM (inactive) | > 100 µM (inactive) | > 100 µM (inactive) | > 100 µM (inactive) | > 100 µM (inactive) | > 100 µM (inactive) |  | > 100 µM (inactive) |
| CC1CC2C3CCC4=CC(=O)C=CC4(C)C3(F)C(O)CC2(C)C1(O)C(=O)CO.Cc1nnc(NS(=O)(=O)c2ccc(/N=N/c3cc(/N=N/c4ccc(S(=O)(=O)Nc5nnc(C)s5)cc4)c4c(NC(=O)C(Cl)Cl)cccc4c3OC(=O)C(Cl)Cl)cc2)s1 | 25.6 µM (inactive) |  | 35.5 µM | 24 µM (inactive) | 19.2 µM (inactive) |  | 11.6 µM (inactive) | 12.1 µM (inactive) | 21.2 µM (inactive) |  | 33.3 µM (inactive) | 22.9 µM (inactive) | 11.6 µM (inactive) | 8.85 µM (inactive) | 12.1 µM (inactive) | 20.8 µM (inactive) | 81.5 µM (inactive) | 88.5 µM (inactive) |  | 30.1 µM (inactive) |
| CCOC(=O)c1c(SC)nc(-c2ccc(Cl)cc2)sc1=N.[O-][Cl+3]([O-])([O-])O | 27.3 µM (inactive) | 34 µM (inactive) | 22.9 µM | 29.4 µM (inactive) | 33.2 µM (inactive) | 26.1 µM (inactive) | 23.5 µM (inactive) | 21.8 µM (inactive) | 33.9 µM (inactive) | 40.9 µM (inactive) | 36.4 µM (inactive) | 34.4 µM (inactive) | 37.7 µM (inactive) | 25.8 µM (inactive) | 22.6 µM (inactive) | 61.9 µM (inactive) | 35.5 µM (inactive) | 30.1 µM (inactive) |  | 31.5 µM (inactive) |
| CCOC(=O)c1csc(CCCCCCc2nc(C(=O)OCC)cs2)n1 | 33.2 µM (inactive) |  | > 60.5 µM | 34 µM (inactive) | 99.5 µM (inactive) |  | 31.8 µM (inactive) | > 52.6 µM (inactive) | 31.6 µM (inactive) |  | 32.4 µM (inactive) | > 40.1 µM (inactive) | > 45.6 µM (inactive) | > 70 µM (inactive) | 43.2 µM (inactive) | > 38.3 µM (inactive) | > 88.7 µM (inactive) | > 57.1 µM (inactive) |  | > 100 µM (inactive) |
| COC(=O)C1=Cc2cc(OC)c(OC)c(OC)c2[C@H](c2cc(OC)c(OC)c(OC)c2)C1C(=O)OC (some centres not stated) | > 100 µM (inactive) |  | > 100 µM | > 100 µM (inactive) | > 100 µM (inactive) |  | > 100 µM (inactive) | > 100 µM (inactive) | > 100 µM (inactive) |  | > 100 µM (inactive) | > 100 µM (inactive) | > 100 µM (inactive) | > 100 µM (inactive) | > 100 µM (inactive) | > 100 µM (inactive) | > 100 µM (inactive) | > 100 µM (inactive) |  | > 100 µM (inactive) |
| C1CN(P2(N3CC3)=NP(N3CC3)(N3CC3)=NP(N3CC3)(N3CC3)=N2)CCO1 (configuration not stated) [FOTRETAMINE] | 55.3 µM (inactive) |  | > 100 µM | 47.3 µM (inactive) | > 100 µM (inactive) |  | > 100 µM (inactive) | > 100 µM (inactive) | > 100 µM (inactive) |  | 72.4 µM (inactive) | > 77.8 µM (inactive) | > 100 µM (inactive) | > 100 µM (inactive) | 27.4 µM (inactive) | > 100 µM (inactive) | > 100 µM (inactive) | 26.6 µM (inactive) |  | > 100 µM (inactive) |
